{"source": "paper PMC11793105", "about": "“A kalihinol analog disrupts apicoplast function and vesicular trafficking in P. falciparum malaria” (Science (New York, N.Y.), 2024)", "key": {"HepG2": {"system": "HepG2", "experiment": "Human cell line activity, HepG2", "assay_type": "cell-based", "details": "HepG2, read-out: IC50 (µM) HepG2"}, "HeLa": {"system": "HeLa", "experiment": "Human cell line activity, HeLa", "assay_type": "cell-based", "details": "read-out: IC50 (µM) HeLa"}, "HEK293": {"system": "HEK293", "experiment": "Human cell line activity, HEK293", "assay_type": "cell-based", "details": "HEK293, read-out: IC50 (µM) HEK293"}, "[1]": {"system": "3D7 Clone-Kalihinol Treated (MED6-189 resistant line)", "experiment": "SYBR Green dose response, MED6-189-selected resistant line", "assay_type": "cell-based, Plasmodium falciparum", "details": "resistant line after ~36 months of drug pressure", "from_the_text": "To assess whether we could use the DMSO melting curves previously established for […] by Dziekan et al. ([49]), we calculated the difference in melting temperatures (ΔTm) between our DMSO dataset and Dziekan’s for 364 proteins for which Tm values were confidently calculated by mineCETSA (table S6).\nFig. 4. […] (C) Schematic representation of the CRISPR-Cas9–based replacement strategy used to introduce a deletion of the targeted repeat regions in the PfSec13 gene. The insertion was achieved through overlap extension polymerase chain reaction (PCR) of fragments directly upstream and downstream of the target segment and subsequently formed by primer overlap extension PCR to replicate the desired deletion. […] (D) Predicted structure of the SEC13 protein highlighting the seven amino acid tandem repeat regions targeted for deletion (red). […] Data were analyzed using a Sigmoidal, 4PL (X represents concentration, n = 3, nonlinear regression, CI: 95%).\nP. falciparum in vitro SYBR green fluorescence-based assays The anti-malarial activity of individual analogues were evaluated in-vitro against P. falciparum 3D7 (MRA-102, drug […]\ngreen-I based fluorescence assay. Parasite growth rate and stages of development were determined via microscopy through Giemsa-stained smears of the cultures. […]"}, "P. falciparum [2]": {"system": "P. falciparum", "experiment": "Drug-drug interaction (fractional inhibitory concentration, isobologram) assay", "assay_type": "cell-based, Plasmodium falciparum", "from_the_text": "Fig. 2. […] Nuclei are stained with 4’,6-diamidino-2-phenylindole (DAPI; blue). […] (B) Dose-dependent interactions between MED6-189 (blue) and various antimalarials with known mechanisms of action (red). […] The regression line represents a nonlinear regression (variable slope with four parameters), with significant differences considered if P < 0.05. […] Isobologram curves are expected to be parallel to the diagonal for additive drug pairs, concave for synergistic drug pairs, and convex for antagonistic drug pairs. […] The analysis was performed using a two-way ANOVA, n = 3, with P < 0.05 significance."}, "[3]": {"system": "P. falciparum Pf3D70087/N9", "experiment": "In vivo efficacy, standard 4-day test in humanized mouse model of P. falciparum malaria", "parameters": "species or system NSG mice engrafted with human erythrocytes", "details": "50 mg/kg orally, once a day for 4 days, from day 3 after infection; by the seventh day", "excerpt": "NOD scid gamma (NSG) mice were intravenously engrafted with human red blood cells (hRBCs) daily until the percentage of hRBCs reached ~50%, at which point the mice were infected with 2 × 10^7 P. falciparum–infected erythrocytes.\nPeripheral blood from P. falciparum–infected mice was stained with TER-119-phycoerythrin (marker of murine erythrocytes) and SYTO-16 (nucleic acid dye) and then analyzed by flow cytometry (FACSCalibur, BD).\nPlasmodium falciparum-infected erythrocytes (P. falciparum Pf3D70087/N9).\nThe mice were obtained from Charles River Labs, bred specifically for\nresearch and certified pathogen free.\nNSG mice were engrafted daily with human red blood cells intravenously injected in a final\nvolume of 0.7 ml (50% hematocrit). Mice were engrafted during two weeks prior to P. falciparum\ninfection, mice achieve around 60% of human red blood cells in mice peripheral blood.\nP. falciparum infections were performed by intravenous inoculation. All mice were randomly\nassigned to their corresponding treatment.\nmg/kg per day for four consecutive days. […] In all cases, parasitemia was assessed in samples from peripheral blood obtained at days 3, 4, 5, 6, and 7 after infection. Fresh samples of peripheral blood from P. falciparum-infected mice were stained with TER-119-Phycoerythrine (marker of murine erythrocytes) and SYTO-16 (nucleic acid dye) and then analyzed by flow cytometry (FACSCalibur, BD)."}, "[4]": {"experiment": "Pharmacokinetics after oral administration to P. falciparum-infected mice (Table S10)", "assay_type": "in vivo, P. falciparum-infected SCID mice", "details": "for Cmax: 50mg/kg oral in 1% Methylcellulose; for AUC(0-inf): read-out: AUCINF_obs", "description": "An Acquity ultra-performance liquid chromatography (UPLC) system (Waters Corp., Milford, MA, USA) couple to a triple quadrupole mass spectrometer (API 4000, AB Sciex, Foster City, CA, USA) was used for the analysis ([99]).\nBlood concentration time data were analyzed by Non-Compartmental PK analysis using Phoenix WinNonlin software (Certara, NY, US) to calculate PK parameters. […]\nmg/kg per day for four consecutive days. Treatment started at day 3 and finished at day 6 after infection. In all cases, parasitemia was assessed in samples from peripheral blood obtained at days 3, 4, 5, 6, and 7 after infection. Fresh samples of peripheral blood from P. falciparum-infected mice were stained with TER-119-Phycoerythrine (marker of murine erythrocytes) and SYTO-16 (nucleic acid dye) and then analyzed by flow cytometry (FACSCalibur, BD). Efficacy was determined using flow cytometry data as the percentage of Parasitemia reduction compared with […]\nblood samples obtained during the 23 h period after the first dose in all mice. Peripheral blood samples (15 µL) were taken at frequent intervals, mixed with 30 µL of H2O milli Q and immediately frozen on dry ice. The frozen samples were stored at −80 °C until analysis. Vehicle-treated mice experienced the same blood-sampling regimen (table S9, S10).\nBioanalysis and pharmacokinetics analysis: LC-MS\nBioanalysis of in vivo samples: Sample pretreatment Before the analysis 15ul of blood samples were defrost at ambient temperature and mixture with 200ul of ACN:MeOH (80:20). After protein precipitation samples were filtered by 0.45um filter plate (Multiscreen Solvinert 0.45um FTPE, Millipore). The 2ul TFA (Trifluoroacetic acid, sigmaAldrich) were added to each filtered sample in order to derivatize the compound to formamide analogue. This process occurs spontaneously.\nLC-MS analysis An Acquity Ultra-Performance liquid chromatography (UPLC) system (Waters Corp., Milford, MA, USA) couple to a triple quadrupole mass spectrometer (API 4000™, AB Sciex, Foster City, CA, USA) was used for the analysis. The MS/MS transition was 311.340 / […]\nThe chromatographic separation was carried out at 0.4ml/min in a Acquity UPLC™ BEH C18 column (50x2.1 mm i.d., […]; Waters Corp.) at 40 °C with Acetonitrile (sigmaAldrich) and 0.1% formic acid as eluents.\nPharmacokinetic analysis Blood concentration time data were analyzed by Non-Compartmental PK analysis using Phoenix WinNonlin software (Certara NY, US) to calculate PK parameters. The maximum observed concentration (Cmax) and the time to reach it (Tmax), were determined. The area under concentration-time curve from dosing at time zero to the last measured concentration […]\ntime (AUClast) and the total area under concentration-time curve from time zero extrapolated to infinity (AUCinf), were calculated using a linear trapezoidal rule. […]"}, "P. falciparum [5]": {"system": "P. falciparum", "details": "several P. falciparum drug-sensitive and drug-resistant strains; earlier study; read-out: IC50 (median inhibitory concentration); cited from earlier work"}, "hTERT": {"system": "hTERT", "experiment": "Human cell line activity, hTERT", "assay_type": "cell-based", "details": "read-out: IC50 (µM) hTERT"}, "[6]": {"details": "50mg/kg oral, infected mice, individual mice"}, "[7]": {"details": "SCID, mouse, whole blood, po, 50 mg/kg, 50mg/kg oral, infected mice, Mean"}, "[8]": {"details": "SCID, mouse, whole blood, po, 50 mg/kg, 50mg/kg oral, infected mice, individual mice"}}, "note": "Like-named read-outs stand apart in the source and are kept apart here."}
{"smiles": "[C-]#[N+][C@]1(C)CC[C@H]2[C@@H]([C@@H](C(C)C)CC[C@]2(C)[N+]#[C-])[C@H]1O", "note": "[MED6-189]", "values": [{"measurement": "IC50", "setting": "HepG2", "value": 34, "unit": "µM"}, {"measurement": "IC50", "setting": "HeLa", "value": 9.6, "unit": "µM"}, {"measurement": "IC50", "setting": "HEK293", "value": 28, "unit": "µM"}, {"measurement": "IC50", "setting": "[1]; 3D7 Clone-Kalihinol Treated", "value": 0.0581, "unit": "µM"}, {"measurement": "IC50", "setting": "[1]; Plasmodium falciparum, 3D7, 3D7 Clone-Kalihinol Treated", "value": "~0.06", "unit": "µM"}, {"measurement": "FIC score", "setting": "P. falciparum [2]; MED6-189 in combination with atovaquone (additive)", "value": "0.91 ± 0.2"}, {"measurement": "FIC score", "setting": "P. falciparum [2]; MED6-189 in combination with chloroquine (additive)", "value": "1.71 ± 0.4"}, {"measurement": "reduction in parasitemia in the peripheral blood", "setting": "[3]", "value": "> 90", "unit": "%"}, {"measurement": "accumulation in blood (levels at 96 hrs)", "setting": "[4]; 50 mg/kg oral every 24h, four days", "value": "no accumulation"}, {"measurement": "Cmax", "setting": "[4]; infected mice, individual mice 1 and 2", "value": 8980, "unit": "ng/mL"}, {"measurement": "Tlast", "setting": "[4]; 50mg/kg oral, infected mice, Mean", "value": 24, "unit": "h"}, {"measurement": "AUCINF_obs", "setting": "[4]; [6]", "value": 115.877, "unit": "µg·h/mL"}, {"measurement": "AUClast", "setting": "[4]; [6]", "value": 114.617, "unit": "µg·h/mL"}, {"measurement": "Tlast", "setting": "[4]; [6]", "value": 24, "unit": "h"}, {"measurement": "Cmax", "setting": "[4]; SCID, mouse, whole blood, po, 50 mg/kg, infected mice, Mean, read-out: Cmax", "value": 7920, "unit": "ng/mL"}, {"measurement": "Cmax", "setting": "[4]; SCID, mouse, whole blood, po, 50 mg/kg, infected mice, individual mice 1 and 2, read-out: Cmax", "value": 6860, "unit": "ng/mL"}, {"measurement": "AUC(0-t)", "setting": "[4]; [7]", "value": 101, "unit": "µg·h/mL"}, {"measurement": "AUC(0-inf)", "setting": "[4]; [7]", "value": 105, "unit": "µg·h/mL"}, {"measurement": "AUC(0-t)", "setting": "[4]; [8]", "value": 86.8, "unit": "µg·h/mL"}, {"measurement": "AUC(0-inf)", "setting": "[4]; [8]", "value": 94.1, "unit": "µg·h/mL"}, {"measurement": "Tmax", "setting": "[4]; SCID, mouse, whole blood, 50mg/kg oral, infected mice, individual mice", "value": 7, "unit": "h"}, {"measurement": "IC50", "setting": "P. falciparum [5]", "value": "< 0.05", "unit": "µM"}, {"measurement": "IC50", "setting": "hTERT", "value": 26, "unit": "µM"}]}
